Laboratory results reported in US20240025919A1, “AZA-TETRACYCLIC OXAZEPINE COMPOUNDS AND USES THEREOF” (Genentech, Inc., priority 2022, published 2024).
Read-outs that look alike come from different tables or passages of the source.

Tests used:
KRAS WT = KRAS WT (Homo sapiens (Human), UniProt P01116); assay: KRAS WT Biochemical Assay, BODIPY-GDP Exchange TR-FRET (Example 501; 3 nM KRAS WT, 3 nM SOS1, 60-minute incubation)
Method: Example 501: KRAS WT Biochemical Assay, BODIPY-GDP Exchange TR-FRET. Biochemical compound potencies are assessed by evaluating inhibition of SOS1-mediated nucleotide exchange in KRAS WT. In this assay, the SOS1-promoted exchange of fluorescently-labeled GDP (BOPIDY-GDP) is monitored by time-resolved fluorescence resonance energy transfer (TR-FRET). Compounds solubilized in DMSO are dispensed as concentration series into 384-well white assay plates, and 5 uL assay buffer (20 mM HEPES, pH 7.5, 50 mM NaCl, 10 mM MgCl2, 0.01% Tween-20 and 1 mM dithiothreitol) is added just prior to the start of the assay. A preformed complex of 3 nM biotin-tagged recombinant human KRAS WT and 0.3 nM terbium-labeled streptavidin (CisBIO) prepared in 5 uL/well assay buffer is added and allowed to incubate for 10-minutes at room temperature. The reaction is initiated with the addition of 5 uL 3 nM recombinant human SOS1 and 300 nM BODIPY-GDP in assay buffer. After a 60-minute incubation, the fluorescence is measured with excitation at 337 nm and emission at 490 and 520 nm. The TR-FRET ratio is determined as the fluorescence at 520 nm divided by the fluorescence at 490 nm multiplied by 10,000. The results are normalized to percent inhibition based on control samples: DMSO (0% inhibition) and control compound at a concentration that inhibits completely (100% inhibition). The normalized TR-FRET results are plotted against compound concentration, and the data are fit to a 4-parameter Hill equation to determine the IC50 values.

KRAS G12D = KRAS G12D (Homo sapiens (Human), UniProt P01116, G12D); assay: KRAS G12D LoEnz Biochemical Assay, BODIPY-GDP Exchange TR-FRET (SOS1-mediated nucleotide exchange); conditions: read-out: KRas (G12D) GDP HTRF IC50
KRAS G12D, sequence (P01116-2 other isoform, or with tags, fused parts or gaps G12D): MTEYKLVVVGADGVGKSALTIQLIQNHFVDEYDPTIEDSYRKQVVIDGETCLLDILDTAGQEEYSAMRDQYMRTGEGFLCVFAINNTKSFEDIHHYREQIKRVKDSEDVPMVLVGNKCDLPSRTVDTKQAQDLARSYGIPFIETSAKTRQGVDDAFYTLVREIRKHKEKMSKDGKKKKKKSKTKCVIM
Method: Example 500: KRAS G12D LoEnz Biochemical Assay, BODIPY-GDP Exchange TR-FRET. Biochemical compound potencies are assessed by evaluating inhibition of SOS1I-mediated nucleotide exchange in KRAS G121D. In this assay, the SOS1-promoted exchange of fluorescently-labeled GDP (BOPIDY-GDP) is monitored by time-resolved fluorescence resonance energy transfer (TR-FRET). Compounds solubilized in DMS0 are dispensed as concentration series into 384-well white assay plates. A preformed complex of biotin-tagged recombinant human KRAS (0.06 nM mutant G1 2D) and 0.06 nM terbium-labeled streptavidin (CisBIO) prepared in 10 uL/well assay buffer (20 mM HEPES, pH 7.5, 50 mM NaCl, 10 mMMMgCl2, 0.0100 Tween-20 and 1 mM dithiothreitol) is added and allowed to incubate for 10-minutes at room temperature. The reaction is initiated with the addition of 5 uL 300 nM recombinant human SOS1 and 300 nM BODIPY-GDP in assay buffer. After a 120-minute incubation, the fluorescence is measured with excitation at 337 nm and emission at 490 and 520 nm. The TR-FRET ratio is determined as the fluorescence at 520 nm divided by the fluorescence at 490 nm multiplied by 10,000. The results are normalized to percent inhibition based on control samples: DMSO (0% inhibition) and control compound at a concentration that inhibits completely (100% inhibition). The normalized TR-FRET results are plotted against compound concentration, and the data are fit to a 4-parameter Hill equation to determine the IC50 values.

[1] = read-out: KRas(wt) GDP HTRF IC50

KRAS WT, sequence (P01116-2 other isoform, or with tags, fused parts or gaps): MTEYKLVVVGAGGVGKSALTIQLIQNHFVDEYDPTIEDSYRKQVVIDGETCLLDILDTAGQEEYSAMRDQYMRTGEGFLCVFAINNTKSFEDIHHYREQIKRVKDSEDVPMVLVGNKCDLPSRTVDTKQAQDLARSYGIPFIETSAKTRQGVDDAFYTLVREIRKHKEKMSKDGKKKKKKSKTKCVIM

SMILES | IC50 (KRAS WT; KRas HTRF IC50 [uM]) | IC50 (KRAS G12D) | IC50 (KRAS WT; read-out: KRas HTRF IC50) | IC50 (KRAS WT; [1])
Cc1c(F)c(N)cc(-c2nc3c4c(nc(OCC5(CN6CC6(C)C)CC5)nc4c2F)N2C[C@H]4CC[C@H](N4)[C@H]2[C@H](C)O3)c1C(F)(F)F (stereo partly drawn) [Compound 259, 5-((5S,5aS,6S,9R)-12-((1-((2,2-Dimethylaziridin-1-yl)methyl)cyclopropyl)methoxy)-1-fluoro-5-methyl-5a,6,7,8,9,10-hexahydro-5H-4-oxa-3,10a,11,13,14-pentaaza-6,9-methanonaphtho[1,8-ab]heptalen-2-yl)-2-fluoro-3-methyl-4-(trifluoromethyl)aniline] | 0.00971 µM | 0.16 nM |  | 
Cc1nc(N)cc(-c2nc3c4c(nc(OCC5(CN6C[C@H]7C[C@@H]6CO7)CC5)nc4c2F)N2C[C@H]4CC[C@H](N4)[C@H]2[C@H](C)O3)c1C(F)(F)F [Compound 209, 4-((5S,5aS,6S,9R)-12-((1-(((1R,4R)-2-Oxa-5-azabicyclo[2.2.1]heptan-5-yl)methyl)cyclopropyl)methoxy)-1-fluoro-5-methyl-5a,6,7,8,9,10-hexahydro-5H-4-oxa-3,10a,11,13,14-pentaaza-6,9-methanonaphtho[1,8-ab]heptalene-2-yl)-6-methyl-5-(trifluoromethyl)pyridin-2-amine] |  | 0.24 nM | 0.0185 µM | 
Cc1c(F)c(N)cc(-c2nc3c4c(nc(OC[C@@]56CCCN5C[C@H](F)C6)nc4c2F)N2C[C@H]4CC[C@H](N4)[C@H]2[C@H](C(F)(F)F)O3)c1C(F)(F)F [Compound 247, 2-Fluoro-5-((5R,5aS,6S,9R)-1-fluoro-12-(((2R,7aS)-2-fluorotetrahydro-1H-pyrrolizin-7a(5H)-yl)methoxy)-5-(trifluoromethyl)-5a,6,7,8,9,10-hexahydro-5H-4-oxa-3,10a,11,13,14-pentaaza-6,9-methanonaphtho[1,8-ab]heptalene-2-yl)-3-methyl-4-(trifluoromethyl)aniline] |  | 0.21 nM | 0.000959 µM | 
Cc1nc(N)cc(-c2nc3c4c(nc(OCC5(CN6CC[C@H]7OCC[C@H]76)CC5)nc4c2F)N2C[C@H]4CC[C@H](N4)[C@H]2[C@H](C)O3)c1C(F)(F)F [Compound 268, 4-((5S,5aS,6S,9R)-1-fluoro-12-((1-(((3aR,6aR)-hexahydro-4H-furo[3,2-b]pyrrol-4-yl)methyl)cyclopropyl)methoxy)-5-methyl-5a,6,7,8,9,10-hexahydro-5H-4-oxa-3,10a,11,13,14-pentaaza-6,9-methanonaphtho[1,8-ab]heptalene-2-yl)-6-methyl-5-(trifluoromethyl)pyridin-2-amine] |  | 0.29 nM | 0.0119 µM | 
Cc1c(F)c(N)cc(-c2nc3c4c(nc(OC[C@@]56CCCN5C[C@H](OCc5ccc(-c7ccccc7C#N)cc5)C6)nc4c2F)N2C[C@H]4CC[C@H](N4)[C@H]2[C@H](C)O3)c1C(F)(F)F [Compound 32, 4′-((((2R,7aS)-7a-((((5S,5aS,6S,9R)-2-(5-amino-4-fluoro-3-methyl-2-(trifluoromethyl)phenyl)-1-fluoro-5-methyl-5a,6,7,8,9,10-hexahydro-5H-4-oxa-3,10a,11,13,14-pentaaza-6,9-methanonaphtho[1,8-ab]heptalen-12-yl)oxy)methyl)hexahydro-1H-pyrrolizin-2-yl)oxy)methyl)-[1,1′-biphenyl]-2-carbonitrile] |  | 0.2 nM |  | 0.000579 µM
Cc1nc(N)cc(-c2nc3c4c(nc(OCC56CCN5CC(F)(F)C6)nc4c2F)N2C[C@H]4CC[C@H](N4)[C@H]2[C@H](C)O3)c1C(F)(F)F (stereo partly drawn) [Compound 214, 4-((5S,5aS,6S,9R)-12-((3,3-Difluoro-1-azabicyclo[3.2.0]heptan-5-yl)methoxy)-1-fluoro-5-methyl-5°,6,7,8,9,10-hexahydro-5H-4-oxa-3,10°,11,13,14-pentaaza-6,9-methanonaptho[1,8-ab]heptalen-2-yl)-6-methyl-5-(trifluoromethyl)pyridin-2-amine] |  | 0.42 nM | 0.0557 µM | 
Cc1c(F)c(N)c(F)c(-c2nc3c4c(nc(OC[C@@]56CCCN5C[C@H](F)C6)nc4c2F)N2C[C@H]4CC[C@H](N4)[C@H]2[C@H](C)O3)c1I [Compound 204, 2,6-Difluoro-3-((5S,5aS,6S,9R)-1-fluoro-12-(((2R,7aS)-2-fluorotetrahydro-1H-pyrrolizin-7a(5H)-yl)methoxy)-5-methyl-5a,6,7,8,9,10-hexahydro-5H-4-oxa-3,10a,11,13,14-pentaaza-6,9-methanonaphtho[1,8-ab]heptalen-2-yl)-4-iodo-5-methylaniline] |  | 0.385 nM | 0.0691 µM | 
COCC1(F)CCN(CC2(COc3nc4c5c(nc(-c6cc(N)nc(C)c6C(F)(F)F)c(F)c5n3)O[C@@H](C)[C@@H]3[C@@H]5CC[C@H](CN43)N5)CC2)C1 (stereo partly drawn) [Compound 270, 4-((5S,5aS,6S,9R)-1-fluoro-12-((1-((3-fluoro-3-(methoxymethyl)pyrrolidin-1-yl)methyl)cyclopropyl)methoxy)-5-methyl-5a,6,7,8,9,10-hexahydro-5H-4-oxa-3,10a,11,13,14-pentaaza-6,9-methanonaphtho[1,8-ab]heptalen-2-yl)-6-methyl-5-(trifluoromethyl)pyridin-2-amine] |  | 0.26 nM | 0.0107 µM | 
Cc1cc(N)nc(-c2nc3c4c(nc(OC[C@@]56CCCN5CC5(CC5(F)F)C6)nc4c2F)N2C[C@H]4CC[C@H](N4)[C@H]2CO3)c1C(F)(F)F (stereo partly drawn) [Compound 42, 6-((5aS,6S,9R)-12-(((7a'S)-2,2-difluorodihydro-1′H,3′H-spiro[cyclopropane-1,2′-pyrrolizin]-7a′(5′H)-yl)methoxy)-1-fluoro-5a,6,7,8,9,10-hexahydro-5H-4-oxa-3,10a,11,13,14-pentaaza[6,9]methanonaphtho[1,8-ab]heptalen-2-yl)-4-methyl-5-(trifluoromethyl)pyridin-2-amine] |  | 0.47 nM |  | 0.0452 µM
Cc1cc(N)c(F)c(-c2nc3c4c(nc(OC[C@@]56CCCN5C[C@H](F)C6)nc4c2F)N2C[C@H]4CC[C@H](N4)[C@H]2[C@H](C)O3)c1CC(F)(F)F [Compound 182, 2-Fluoro-3-((5S,5aS,6S,9R)-1-fluoro-12-(((2R,7aS)-2-fluorotetrahydro-1H-pyrrolizin-7°(5H)-yl)methoxy)-5-methyl-5°,6,7,8,9,10-hexahydro-5H-4-oxa-3,10°,11,13,14-pentaaza-6,9-methanonaphtho[1,8-ab]heptalen-2-yl)-5-methyl-4-(2,2,2-trifluoroethyl)aniline] |  | 0.269 nM | 0.0339 µM | 
C[C@@H]1Oc2nc(-c3cc(N)c(F)c(F)c3CC(F)(F)F)c(F)c3nc(OC[C@@]45CCCN4C[C@H](F)C5)nc(c23)N2C[C@H]3CC[C@H](N3)[C@@H]12 [Compound 183, 2,3-Difluoro-5-((5S,5aS,6S,9R)-1-fluoro-12-(((2R,7aS)-2-fluorotetrahydro-1H-pyrrolizin-7a(5H)-yl)methoxy)-5-methyl-5a,6,7,8,9,10-hexahydro-5H-4-oxa-3,10a,11,13,14-pentaaza-6,9-methanonaphtho[1,8-ab]heptalene-2-yl)-4-(2,2,2-trifluoroethyl)aniline] |  | 0.21 nM | 0.00446 µM | 
Cc1cc(N)c(F)c(-c2nc3c4c(nc(OCC56CCN5CC(F)(F)C6)nc4c2F)N2C[C@H]4CC[C@H](N4)[C@H]2[C@H](C)O3)c1C(F)(F)F (mixture of isomers) [Compound 33, 3-((5S,5aS,6S,9R)-12-((3,3-Difluoro-1-azabicyclo[3.2.0]heptan-5-yl)methoxy)-1-fluoro-5-methyl-5a,6,7,8,9,10-hexahydro-5H-4-oxa-3,10a,11,13,14-pentaaza-6,9-methanonaphtho[1,8-ab]heptalen-2-yl)-2-fluoro-5-methyl-4-(trifluoromethyl)aniline] |  | 0.23 nM |  | 0.00753 µM
Cc1c(F)c(N)cc(-c2nc3c4c(nc(OC[C@@]56CCCN5C[C@H](F)C6)nc4c2F)N2CCNC[C@H]2C(C)O3)c1C(F)(F)F (single isomer, unassigned) [235 (isomer 2)] |  | 0.48 nM | 0.00263 µM | 
